Reference: patent US9469650B2, “Melampomagnolide B derivatives” (BOARD OF TRUSTEES OF THE UNIVERSITY OF ARKANSAS, priority 2013, dated 2016)

Key:
RXF 393 = assay: panel of 60 human tumor cell lines, growth inhibition (Renal Cancer); settings: Homo sapiens
SF-539 = assay: panel of 60 human tumor cell lines, growth inhibition (CNS Cancer); settings: Homo sapiens
HCC-2998 = assay: panel of 60 human tumor cell lines, growth inhibition (Colon Cancer); settings: Homo sapiens
IGROV1 = assay: panel of 60 human tumor cell lines, growth inhibition (Ovarian Cancer); settings: Homo sapiens
NCI-H460 = assay: panel of 60 human tumor cell lines, growth inhibition (Non-Small Cell Lung Cancer); settings: Homo sapiens
SNB-19 = assay: panel of 60 human tumor cell lines, growth inhibition (CNS Cancer); settings: Homo sapiens
UO-31 = assay: panel of 60 human tumor cell lines, growth inhibition (Renal Cancer); settings: Homo sapiens
MDA-MB-435 = assay: panel of 60 human tumor cell lines, growth inhibition (Melanoma); settings: Homo sapiens
ACHN = assay: panel of 60 human tumor cell lines, growth inhibition (Renal Cancer); settings: Homo sapiens
MCF7 = assay: panel of 60 human tumor cell lines, growth inhibition (Breast Cancer); settings: Homo sapiens
SK-OV-3 = assay: panel of 60 human tumor cell lines, growth inhibition (Ovarian Cancer); settings: Homo sapiens
T-47D = assay: panel of 60 human tumor cell lines, growth inhibition (Breast Cancer); settings: Homo sapiens, T47D
NCI-H23 = assay: panel of 60 human tumor cell lines, growth inhibition (Non-Small Cell Lung Cancer); settings: Homo sapiens
BT-549 = assay: panel of 60 human tumor cell lines, growth inhibition (Breast Cancer); settings: Homo sapiens
MOLT-4 = assay: panel of 60 human tumor cell lines, growth inhibition (Leukemia); settings: Homo sapiens
HCT-15 = assay: panel of 60 human tumor cell lines, growth inhibition (Colon Cancer); settings: Homo sapiens
SK-MEL-5 = assay: panel of 60 human tumor cell lines, growth inhibition (Melanoma); settings: Homo sapiens
NCI-H322M = assay: panel of 60 human tumor cell lines, growth inhibition (Non-Small Cell Lung Cancer); settings: Homo sapiens
HOP-92 = assay: as above; settings: Homo sapiens

Q: Which GI50 (RXF 393; RXF 393, RXF 393) does the source give for `C=C1C(=O)O[C@H]2[C@H]1CC/C(COC(=O)OCCCN1CCCCC1)=C\CC[C@@]1(C)O[C@@H]21` [JVM 2-26] here?
A: 2.35 µM

Q: And the CC50 (RXF 393; RXF 393, read-out: LC50)?
A: 34 µM

Q: And the IC (TGI) (RXF 393; RXF 393, read-out: TGI)?
A: 8.65 µM

Q: And the GI50 (SF-539; SF-539)?
A: 2.39 µM

Q: And the CC50 (SF-539; SF-539, read-out: LC50)?
A: 32.1 µM

Q: What about the IC (TGI) (SF-539; SF-539, read-out: TGI) of the same compound?
A: 8.7 µM

Q: What about the GI50 (HCC-2998; HCC 2998) of the same compound?
A: 14.4 µM

Q: And the CC50 (HCC-2998; HCC 2998, read-out: LC50)?
A: 60.1 µM

Q: And the IC (TGI) (HCC-2998; HCC 2998, read-out: TGI)?
A: 19.4 µM

Q: What about the GI50 (IGROV1; IGROV-1) of the same compound?
A: 13.2 µM

Q: And the CC50 (IGROV1; IGROV-1, read-out: LC50)?
A: 76.3 µM

Q: What about the IC (TGI) (IGROV1; IGROV-1, read-out: TGI) of the same compound?
A: 31.7 µM

Q: And the GI50 (NCI-H460; NCI-H460)?
A: 16.7 µM

Q: And the CC50 (NCI-H460; NCI-H460, read-out: LC50)?
A: 77.5 µM

Q: What about the IC (TGI) (NCI-H460; NCI-H460, read-out: TGI) of the same compound?
A: 36 µM

Q: And the GI50 (SNB-19; SNB-19)?
A: 13.5 µM

Q: What about the CC50 (SNB-19; SNB-19, read-out: LC50) of the same compound?
A: 56.3 µM

Q: And the IC (TGI) (SNB-19; SNB-19, read-out: TGI)?
A: 27.5 µM

Q: And the GI50 (UO-31; UO-31)?
A: 2.36 µM

Q: What about the CC50 (UO-31; UO-31, read-out: LC50) of the same compound?
A: 46.3 µM

Q: And the IC (TGI) (UO-31; UO-31, read-out: TGI)?
A: 12.5 µM

Q: And the GI50 (MDA-MB-435; MDA-MB-435)?
A: 2.99 µM

Q: And the CC50 (MDA-MB-435; MDA-MB-435, read-out: LC50)?
A: 38.5 µM

Q: What about the IC (TGI) (MDA-MB-435; MDA-MB-435, read-out: TGI) of the same compound?
A: 13.2 µM

Q: What about the GI50 (ACHN) of the same compound?
A: 2.14 µM

Q: And the CC50 (ACHN; read-out: LC50)?
A: 31.5 µM

Q: What about the IC (TGI) (ACHN; read-out: TGI) of the same compound?
A: 8.06 µM

Q: And the GI50 (MCF7; MCF7, MCF7)?
A: 2.3 µM

Q: What about the CC50 (MCF7; MCF7, read-out: LC50) of the same compound?
A: 50.8 µM

Q: And the IC (TGI) (MCF7; MCF7, read-out: TGI)?
A: 10.7 µM

Q: And the GI50 (SK-OV-3; SK-OV-3)?
A: 21 µM

Q: What about the CC50 (SK-OV-3; SK-OV-3, read-out: LC50) of the same compound?
A: > 100 µM

Q: What about the IC (TGI) (SK-OV-3; SK-OV-3, read-out: TGI) of the same compound?
A: 53.7 µM

Q: What about the GI50 (T-47D) of the same compound?
A: 2.34 µM

Q: What about the CC50 (T-47D; read-out: LC50) of the same compound?
A: 45.9 µM

Q: And the IC (TGI) (T-47D; read-out: TGI)?
A: 8.12 µM

Q: What about the GI50 (NCI-H23; NCI-H23) of the same compound?
A: 12.8 µM

Q: What about the CC50 (NCI-H23; NCI-H23, read-out: LC50) of the same compound?
A: 67.1 µM

Q: What about the IC (TGI) (NCI-H23; NCI-H23, read-out: TGI) of the same compound?
A: 29.4 µM

Q: What about the GI50 (BT-549; BT-549) of the same compound?
A: 3.12 µM

Q: And the CC50 (BT-549; BT-549, read-out: LC50)?
A: 38.7 µM

Q: And the IC (TGI) (BT-549; BT-549, read-out: TGI)?
A: 15 µM

Q: What about the GI50 (MOLT-4; MOLT-4) of the same compound?
A: 4.07 µM

Q: And the CC50 (MOLT-4; MOLT-4, read-out: LC50)?
A: 98.7 µM

Q: And the IC (TGI) (MOLT-4; MOLT-4, read-out: TGI)?
A: 10.4 µM

Q: What about the GI50 (HCT-15; HCT-15) of the same compound?
A: 2.39 µM

Q: What about the CC50 (HCT-15; HCT-15, read-out: LC50) of the same compound?
A: 37 µM

Q: What about the IC (TGI) (HCT-15; HCT-15, read-out: TGI) of the same compound?
A: 10.6 µM

Q: What about the GI50 (SK-MEL-5; SK-MEL-5) of the same compound?
A: 10.6 µM

Q: What about the CC50 (SK-MEL-5; SK-MEL-5, read-out: LC50) of the same compound?
A: 47.6 µM

Q: What about the IC (TGI) (SK-MEL-5; SK-MEL-5, read-out: TGI) of the same compound?
A: 22.5 µM

Q: And the GI50 (NCI-H322M)?
A: 17.2 µM

Q: And the CC50 (NCI-H322M; read-out: LC50)?
A: > 100 µM

Q: What about the IC (TGI) (NCI-H322M; read-out: TGI) of the same compound?
A: 54.4 µM

Q: And the GI50 (HOP-92; HOP-92, HOP-92)?
A: 1.96 µM

Q: What about the CC50 (HOP-92; HOP-92, read-out: LC50) of the same compound?
A: 31.4 µM

Q: What about the IC (TGI) (HOP-92; HOP-92, read-out: TGI) of the same compound?
A: 7.47 µM
